Assay results taken from patent US12685312B2, “Sulfonamide apyrase inhibitors” (Texas Crop Science, Inc., priority 2022, dated 2026).

tested on: apyrase; assay: Screen for apyrase inhibitors (Method 1, in vitro phosphate-release absorbance assay); format: biochemical; conditions: inhibitor conc at 1 mM stock, 1 hr room temperature, absorbance 630 nm; rounded average of two assay results
In short: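 Phosphate-release colorimetric assay (Windsor method) in 60 mM Hepes, 3 mM MgCl2, 3 mM CaCl2, 3 mM ATP, pH 6.5, with compound or DMSO control added. Released phosphate developed with ammonium molybdate and ascorbic acid/TCA, then stopped with citrate/acetic acid.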

| SMILES | % Inhibition of Apyrase |
| --- | --- |
| O=C(Nc1cccc(C(F)(F)F)c1)c1cccc(S(=O)(=O)Nc2ccccc2F)c1 [I-285, 3-(N-(2-fluorophenyl)sulfamoyl)-N-(3-(trifluoromethyl)phenyl)benzamide] | 17% |
| Cc1ccc(S(=O)(=O)Nc2cccc(NC(=O)c3ccc4c(c3)OCCO4)c2)cc1C [I-227, N-(3-((3,4-dimethylphenyl)sulfonamido)phenyl)-2,3-dihydrobenzo[b][1,4]dioxine-6-carboxamide] | 71% |
| Cc1cccc(NS(=O)(=O)c2ccc(C)c(C(=O)N3CCCc4ccccc43)c2)c1 [I-489, 4-methyl-3-(1,2,3,4-tetrahydroquinoline-1-carbonyl)-N-(m-tolyl)benzenesulfonamide] | 58% |
| O=C(Nc1ccc(F)cc1)c1ccc(NS(=O)(=O)c2ccc(Cl)c([N+](=O)[O-])c2)cc1 [I-902, 4-((4-chloro-3-nitrophenyl)sulfonamido)-N-(4-fluorophenyl)benzamide] | 64% |
| O=C(Nc1ccccc1NS(=O)(=O)c1cccs1)c1ccc(Cl)cc1F [I-837, 4-chloro-2-fluoro-N-(2-(thiophene-2-sulfonamido)phenyl)benzamide] | 35% |
| N#Cc1ccc(NC(=O)c2ccc(Cl)c(S(=O)(=O)N3CCc4ccccc43)c2)cc1 [I-557, 4-chloro-N-(4-cyanophenyl)-3-(indolin-1-ylsulfonyl)benzamide] | 52% |
| COc1ccc(S(=O)(=O)N2CCc3ccccc32)cc1C(=O)Nc1ccc(OC(F)(F)F)cc1 [I-597, 5-(indolin-1-ylsulfonyl)-2-methoxy-N-(4-(trifluoromethoxy)phenyl)benzamide] | 35% |
| O=C(CNC(=O)c1ccccc1F)Nc1cccc(S(=O)(=O)Nc2ccc(Br)cc2)c1 [I-205, N-(2-((3-(N-(4-bromophenyl)sulfamoyl)phenyl)amino)-2-oxoethyl)-2-fluorobenzamide] | 74% |
| O=C(Nc1ccc(Br)cc1)c1cccc(S(=O)(=O)N2CCc3ccccc32)c1 [I-189, N-(4-bromophenyl)-3-(indolin-1-ylsulfonyl)benzamide] | 70% |
| Cc1ccc(NC(=O)c2ccc(C(=O)Nc3ccc(C)cc3)cc2)cc1 [I-859, N1,N4-di-p-tolylterephthalamide] | 72% |
| O=C(c1cccc(S(=O)(=O)N2CCc3ccccc32)c1)N1CCc2ccccc21 [I-567, indolin-1-yl(3-(indolin-1-ylsulfonyl)phenyl)methanone] | 51% |
| CCOc1ccc(NS(=O)(=O)c2cccc(C(=O)N3CCCc4ccccc43)c2)cc1 [I-568, N-(4-ethoxyphenyl)-3-(1,2,3,4-tetrahydroquinoline-1-carbonyl)benzenesulfonamide] | 51% |
| O=C(NCC(=O)N1CCCCC1)c1cccc(S(=O)(=O)Nc2ccc(Br)cc2)c1 [I-281, 3-(N-(4-bromophenyl)sulfamoyl)-N-(2-oxo-2-(piperidin-1-yl)ethyl)benzamide] | 39% |
| O=C(Nc1cccc(NS(=O)(=O)c2ccc(Cl)cc2)c1)c1ccc2[nH]cnc2c1 [I-342, N-(3-((4-chlorophenyl)sulfonamido)phenyl)-1H-benzo[d]imidazole-5-carboxamide] | 63% |
| O=C(NCCCN1CCCC1=O)c1cccc(S(=O)(=O)Nc2ccc(Br)cc2)c1 [I-46, 3-(N-(4-bromophenyl)sulfamoyl)-N-(3-(2-oxopyrrolidin-1-yl)propyl)benzamide] | 12% |
| O=C(c1cc(S(=O)(=O)Nc2ccc(Cl)cc2)ccc1Cl)N1CCc2ccccc21 [I-490, 4-chloro-N-(4-chlorophenyl)-3-(indoline-1-carbonyl)benzenesulfonamide] | 58% |
| O=C(Nc1cccc(S(=O)(=O)Nc2cccc(C(F)(F)F)c2)c1)c1ccc(Cl)nc1 [I-725, 6-chloro-N-(3-(N-(3-(trifluoromethyl)phenyl)sulfamoyl)phenyl) nicotinamide] | 57% |
| Cc1cc(NC(=O)c2cccc(NS(=O)(=O)c3ccc4c(c3)OCCO4)c2)no1 [I-628, 3-((2,3-dihydrobenzo[b][1,4]dioxine)-6-sulfonamido)-N-(5-methylisoxazol-3-yl)benzamide] | 68% |
| Cc1cc(C)cc(NC(=O)c2cccc(S(=O)(=O)Nc3ccc4c(c3)OCO4)c2)c1 [I-179, 3-(N-(benzo[d][1,3]dioxol-5-yl)sulfamoyl)-N-(3,5-dimethylphenyl)benzamide] | 72% |
| Cc1ccc(NC(=O)c2cccc(S(=O)(=O)Nc3ccc4c(c3)OCO4)c2)cc1C [I-230, 3-(N-(benzo[d][1,3]dioxol-5-yl)sulfamoyl)-N-(3,4-dimethylphenyl)benzamide] | 66% |
| COc1ccc(Cl)cc1NS(=O)(=O)c1cccc(C(=O)N2CCc3ccccc32)c1 [I-520, N-(5-chloro-2-methoxyphenyl)-3-(indoline-1-carbonyl)benzenesulfonamide] | 56% |
| O=C(Nc1cccc(S(=O)(=O)Nc2ccc(Cl)cc2)c1)c1ccsc1 [I-717, N-(3-(N-(4-chlorophenyl)sulfamoyl)phenyl)thiophene-3-carboxamide] | 58% |
| CC1Cc2ccccc2N1S(=O)(=O)c1cccc(C(=O)Nc2ccc3c(c2)OCCO3)c1 (stereo not shown) [I-536, N-(2,3-dihydrobenzo[b][1,4]dioxin-6-yl)-3-((2-methylindolin-1-yl)sulfonyl)benzamide] | 54% |
| O=C(Nc1ccccc1F)c1cccc(S(=O)(=O)Nc2ccc3c(c2)OCO3)c1 [I-249, 3-(N-(benzo[d][1,3]dioxol-5-yl)sulfamoyl)-N-(2-fluorophenyl)benzamide] | 63% |
| O=C(Nc1cccc([N+](=O)[O-])c1)c1cccc(S(=O)(=O)Nc2cccc(F)c2)c1 [I-51, 3-(N-(3-fluorophenyl)sulfamoyl)-N-(3-nitrophenyl)benzamide] | 10% |
| Cc1nc2cc(NC(=O)c3cccc(S(=O)(=O)N4CCc5ccccc54)c3)ccc2o1 [I-587, 3-(indolin-1-ylsulfonyl)-N-(2-methylbenzo[d]oxazol-5-yl)benzamide] | 44% |

Results, then the molecule that gave them:

| % Inhibition of Apyrase | SMILES |
| --- | --- |
| 52% | Cc1ccc(N(C)S(=O)(=O)c2cccc(C(=O)N3CCc4ccccc43)c2)cc1 [I-558, 3-(indoline-1-carbonyl)-N-methyl-N-(p-tolyl)benzenesulfonamide] |
| 59% | CC(C)c1ccc(NC(=O)c2ccc(S(=O)(=O)N3CCCc4ccccc43)cc2)cc1 [I-864, 4-((3,4-dihydroquinolin-1(2H)-yl)sulfonyl)-N-(4-isopropylphenyl)benzamide] |
| 57% | O=C(Nc1ccc(S(=O)(=O)Nc2ccccc2Cl)cc1)c1ccc(Cl)c(Cl)c1 [I-982, 3,4-dichloro-N-(4-(N-(2-chlorophenyl)sulfamoyl)phenyl)benzamide] |
| 54% | COc1ccc(S(=O)(=O)N2CCc3ccccc32)cc1C(=O)Nc1ccccc1F [I-538, N-(2-fluorophenyl)-5-(indolin-1-ylsulfonyl)-2-methoxybenzamide] |
| 59% | O=C(Nc1ccccc1OC(F)F)c1ccc(Cl)c(S(=O)(=O)N2CCc3ccccc32)c1 [I-463, 4-chloro-N-(2-(difluoromethoxy)phenyl)-3-(indolin-1-ylsulfonyl)benzamide] |
| 47% | CCOc1ccc(NC(=O)c2cc(S(=O)(=O)N3CCc4ccccc43)ccc2OC)cc1 [I-581, N-(4-ethoxyphenyl)-5-(indolin-1-ylsulfonyl)-2-methoxybenzamide] |
| 58% | CC1Cc2ccccc2N1S(=O)(=O)c1cccc(C(=O)Nc2cccc3cccnc23)c1 (stereo not shown) [I-484, 3-((2-methylindolin-1-yl)sulfonyl)-N-(quinolin-8-yl)benzamide] |
| 58% | CN(c1ccccc1)S(=O)(=O)c1cccc(C(=O)N2CCCc3ccccc32)c1 [I-482, N-methyl-N-phenyl-3-(1,2,3,4-tetrahydroquinoline-1-carbonyl)benzenesulfonamide] |
| 49% | CSc1ncccc1C(=O)Nc1cccc(S(=O)(=O)N(C)c2ccccc2)c1 [I-743, N-(3-(N-methyl-N-phenylsulfamoyl)phenyl)-2-(methylthio)nicotinamide] |
| 58% | COc1ccccc1NS(=O)(=O)c1cccc(C(=O)Nc2cccc(C(F)(F)F)c2)c1 [I-266, 3-(N-(2-methoxyphenyl)sulfamoyl)-N-(3-(trifluoromethyl)phenyl)benzamide] |
| 57% | Cc1ccc(NC(=O)c2cccc(S(=O)(=O)N(C)c3ccc(C)cc3)c2)cc1 [I-502, 3-(N-methyl-N-(p-tolyl)sulfamoyl)-N-(p-tolyl)benzamide] |
| 62% | CN(c1ccccc1)S(=O)(=O)c1cccc(NC(=O)c2ccc(Br)s2)c1 [I-706, 5-bromo-N-(3-(N-methyl-N-phenylsulfamoyl)phenyl)thiophene-2-carboxamide] |
| 59% | CC1Cc2ccccc2N1C(=O)c1cccc(S(=O)(=O)N(C)c2cccc(Cl)c2)c1 (stereo not shown) [I-464, N-(3-chlorophenyl)-N-methyl-3-(2-methylindoline-1-carbonyl)benzenesulfonamide] |
| 41% | Cc1ccc(N(C)S(=O)(=O)c2cccc(C(=O)Nc3ccc(C)cc3C)c2)cc1 [I-591, N-(2,4-dimethylphenyl)-3-(N-methyl-N-(p-tolyl)sulfamoyl)benzamide] |
| 59% | COc1ccc(C)cc1NC(=O)c1cccc(S(=O)(=O)N2CCc3ccccc32)c1 [I-473, 3-(indolin-1-ylsulfonyl)-N-(2-methoxy-5-methylphenyl)benzamide] |
| 43% | CN(c1ccccc1)S(=O)(=O)c1ccccc1C(=O)Nc1ccc(Cl)cc1F [I-355, N-(4-chloro-2-fluorophenyl)-2-(N-methyl-N-phenylsulfamoyl)benzamide] |
| 53% | COc1ccccc1NC(=O)c1ccc(S(=O)(=O)N(C)c2ccccc2OC)cc1 [I-880, N-(2-methoxyphenyl)-4-(N-(2-methoxyphenyl)-N-methylsulfamoyl)benzamide] |
